The record followed here is patent US20100279997A1, “ANALGESIC THAT BINDS FILAMIN A” (priority 2009, published 2010).

In the assay the target is T1, μ opiate receptor (MOR) (Rattus norvegicus, UniProt P33535).
T1 construct: from tissue; host or cells: striatal tissue (membrane preparation)
Nature of the assay: MOR agonist activity, [35S]GTPγS binding assay using striatal membranes. The format is biochemical. The note with it: for [35S]GTPγS binding to Gαo, FLNA-binding compound as agonist 0.1 μM: 0.1 μM compound; for [35S]GTPγS binding to Gαo, FLNA-binding compound as agonist 0.1 μM / [35S]GTPγS binding to Gαo, FLNA-binding compound as agonist 1 μM: striatal membranes; for [35S]GTPγS binding to Gαo, FLNA-binding compound as agonist 1 μM + BFNA: 1 μM compound + 1 μM β-funaltrexamine; for [35S]GTPγS binding to Gαo, FLNA-binding compound as agonist 1 μM: 1 μM compound. The protocol: To assess the μ opiate receptor (MOR) agonist activity of positive compounds from the FLNA screening, compounds were tested in a [^35S]GTPγS binding assay using striatal membranes.
Striatal tissue was homogenized in 10 volumes of ice cold 25 mM HEPES buffer, pH 7.4, which contained 1 mM EGTA, 100 mM sucrose, 50 μg/ml leupeptin, 0.04 mM PMSF, 2 μg/ml soybean trypsin inhibitor and 0.2% 2-mercaptoethanol. The homogenates were centrifuged at 800×g for 5 minutes and the supernatants were centrifuged at 49,000×g for 20 minutes. The resulting pellets were suspended in 10 volume of reaction buffer, which contained 25 mM HEPES, pH 7.5, 100 mM NaCl, 50 μg/ml leupeptin, 2 μg/ml soybean trypsin inhibitor, 0.04 mM PMSF and 0.02% […].
The resultant striatal membrane preparation (200 μg) was admixed and maintained (incubated) at 30° C. for 5 minutes in reaction buffer as above that additionally contained 1 mM MgCl2 and 0.5 nM [^35S]GTPγS (0.1 μCi/assay, PerkinElmer Life and Analytical Sciences) in a total volume of 250 μl and continued for 5 minutes in the absence or presence of 0.1-10 μM of an assayed compound of interest. The reaction was terminated by dilution with 750 μl of ice-cold reaction buffer that contained 20 mM MgCl2 and 1 mM EGTA and immediate centrifugation at 16,000×g for 5 minutes.
The resulting pellet was solubilized by sonicating for 10 seconds in 0.5 ml of immunoprecipitation buffer containing 0.5% digitonin, 0.2% sodium cholate and 0.5% NP-40. Normal rabbit serum (1 μl) was added to 1 ml of lysate and incubated at 25° C. for 30 minutes. Nonspecific immune complexes were removed by incubation with 25 μl of protein A/G-conjugated agarose beads at 25° C. for 30 minutes followed by centrifugation at 5,000×g at 4° C. for 5 minutes. The supernatant was divided and separately incubated at 25° C. for 30 minutes with antibodies raised against Gao proteins (1:1,000 dilutions).
The immunocomplexes so formed were collected by incubation at 25° C. for 30 minutes with 40 μl of agarose-conjugated protein A/G beads and centrifugation at 5,000×g at 4° C. for 5 minutes. The pellet was washed and suspended in buffer containing 50 mM Tris-HCl, pH 8.0, and 1% NP-40. The radioactivity in the suspension was determined by liquid scintillation spectrometry. […] DAMGO (H-Tyr-D-Ala-Gly-N-MePhe-Gly-OH; 1 or 10 μM) was used as a positive control.

T1 sequence (P33535 whole entry): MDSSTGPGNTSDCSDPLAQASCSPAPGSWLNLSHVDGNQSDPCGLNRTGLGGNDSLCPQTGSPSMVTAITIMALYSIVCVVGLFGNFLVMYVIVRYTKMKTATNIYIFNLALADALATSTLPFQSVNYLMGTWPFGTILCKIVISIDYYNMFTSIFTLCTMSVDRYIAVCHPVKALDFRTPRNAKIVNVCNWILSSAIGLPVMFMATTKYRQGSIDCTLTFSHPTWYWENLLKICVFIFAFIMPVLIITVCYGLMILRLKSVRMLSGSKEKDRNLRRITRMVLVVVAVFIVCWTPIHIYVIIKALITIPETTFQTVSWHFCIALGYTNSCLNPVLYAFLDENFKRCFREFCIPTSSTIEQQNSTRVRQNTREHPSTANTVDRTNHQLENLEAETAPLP

For the molecule `CC1CCC(C(C)C)C(OCC(O)CN2CCCC2)C1` (stereo not drawn) [Compound A0001], the “[35S]GTPγS binding to Gαo, FLNA-binding compound as agonist 0.1 μM” value (from here on “[35S]GTPγS binding to Gαo … as agonist 0.1 μM”) is recorded as 94.3%; the “[35S]GTPγS binding to Gαo, FLNA-binding compound as agonist 1 μM + BFNA” value (from here on “[35S]GTPγS binding … as agonist 1 μM + BFNA”) is 22.2%; the “[35S]GTPγS binding to Gαo, FLNA-binding compound as agonist 1 μM” value worked out at 181.7%.
In the case of `CC1CCC(C(C)C)C(OCC(O)CN2CCSC2)C1` (stereo not drawn) [Compound A0002], the “[35S]GTPγS binding to Gαo … as agonist 0.1 μM” value is recorded as 155.6%; the “[35S]GTPγS binding … as agonist 1 μM + BFNA” value came to 6.5%; the “[35S]GTPγS binding to Gαo, FLNA-binding compound as agonist 1 μM” value is 199.4%.
For `CC1CCC(C(C)C)C(OCC(O)CN2CCSCC2)C1` (stereo not drawn) [Compound A0003], in that order: 176.8%, 17.1% and 276.0%.
Consider `CC1CCC(C(C)C)C(OCC(O)CN2CCOCC2)C1` (stereo not drawn) [Compound A0004], for which the “[35S]GTPγS binding to Gαo … as agonist 0.1 μM” value is 97.4%; the “[35S]GTPγS binding … as agonist 1 μM + BFNA” value came out at 86.0%; the “[35S]GTPγS binding to Gαo, FLNA-binding compound as agonist 1 μM” value is 144.2%.
As to `CC1CCC(C(C)C)C(OCC(O)CN2CCCCC2)C1` (stereo not drawn) [Compound A0005], the “[35S]GTPγS binding to Gαo … as agonist 0.1 μM” value is recorded as 179.7%; the “[35S]GTPγS binding … as agonist 1 μM + BFNA” value came to 23.5%; the “[35S]GTPγS binding to Gαo, FLNA-binding compound as agonist 1 μM” value is recorded as 239.2%.
For `CC1CCN(CC(O)COC2CC(C)CCC2C(C)C)CC1` (stereo not drawn) [Compound A0006], in that order: 170.0%, 18.2% and 190.9%.
Regarding `CC1CCC(C(C)C)C(OCC(O)CN2CCCCC2C)C1` (stereo not drawn) [Compound A0007], the “[35S]GTPγS binding to Gαo … as agonist 0.1 μM” value is given as 102.0%; the “[35S]GTPγS binding … as agonist 1 μM + BFNA” value was found to be 40.4%; the “[35S]GTPγS binding to Gαo, FLNA-binding compound as agonist 1 μM” value was 221.9%.
As to `CC1CCC(C(C)C)C(OCC(O)CN2CC(C)CC(C)C2)C1` (stereo not drawn) [Compound A0008], the “[35S]GTPγS binding to Gαo … as agonist 0.1 μM” value came out at 163.8%; the “[35S]GTPγS binding … as agonist 1 μM + BFNA” value was 133.9%; the “[35S]GTPγS binding to Gαo, FLNA-binding compound as agonist 1 μM” value is 235.0%.
Turning to `CC1CCC(C(C)C)C(OCC(O)CN2CCN(C)CC2)C1` (stereo not drawn) [Compound A0009], the “[35S]GTPγS binding to Gαo … as agonist 0.1 μM” value was determined as 70.2%; the “[35S]GTPγS binding … as agonist 1 μM + BFNA” value is reported as 93.9%; the “[35S]GTPγS binding to Gαo, FLNA-binding compound as agonist 1 μM” value amounted to 126.4%.
The matching figures for `CC1CCC(C(C)C)C(OCC(O)CN2CCCN(C)CC2)C1` (stereo not drawn) [Compound A0010]: 277.2%, 190.3% and 319.0%.
For `COc1ccc(N2CCN(CC(O)COC3CC(C)CCC3C(C)C)CC2)c(OC)c1` (stereo not drawn) [Compound A0012], in that order: 149.3%, 122.4% and 185.7%.
The matching figures for `CC1CCC(C(C)C)C(OCC(O)CN2CCCCCC2)C1` (stereo not drawn) [Compound A0013]: 102.1%, 86.1% and 164.8%.
With `CC1CCC(C(C)C)C(OCC(O)CN2CCCCCCC2)C1` (stereo not drawn) [Compound A0014], the “[35S]GTPγS binding to Gαo … as agonist 0.1 μM” value came out at 147.0%; the “[35S]GTPγS binding … as agonist 1 μM + BFNA” value was determined as 140.8%; the “[35S]GTPγS binding to Gαo, FLNA-binding compound as agonist 1 μM” value is listed as 174.9%.
For `CC1CCC(C(C)C)C(OCC(O)CN2CCC2)C1` (stereo not drawn) [Compound A0015], in that order: 110.9%, 62.5% and 150.1%.
`CC1CN(CC(O)COC2CCCCC2)CC(C)O1` (stereo not drawn) [Compound A0017]: the “[35S]GTPγS binding to Gαo … as agonist 0.1 μM” value stood at 161.9%; the “[35S]GTPγS binding … as agonist 1 μM + BFNA” value came to 65.2%; the “[35S]GTPγS binding to Gαo, FLNA-binding compound as agonist 1 μM” value is recorded as 246.0%.
In the case of `CC1CCC(C(C)C)C(OCC(O)CN2CCN(CCc3ccccc3)CC2)C1` (stereo not drawn) [Compound A0020], the “[35S]GTPγS binding to Gαo … as agonist 0.1 μM” value is reported as 168.6%; the “[35S]GTPγS binding … as agonist 1 μM + BFNA” value turned out to be 67.4%; the “[35S]GTPγS binding to Gαo, FLNA-binding compound as agonist 1 μM” value is reported as 217.4%.
Take `CC1CCC(C)C(OCC(O)CN2CC(C)OC(C)C2)C1` (stereo not drawn) [Compound A0022]: the “[35S]GTPγS binding to Gαo … as agonist 0.1 μM” value is on record as 154.1%; the “[35S]GTPγS binding … as agonist 1 μM + BFNA” value is 28.0%; the “[35S]GTPγS binding to Gαo, FLNA-binding compound as agonist 1 μM” value turned out to be 216.0%.
Take `CC1CN(CC(O)COc2ccccc2)CC(C)O1` (stereo not drawn) [Compound A0025]: the “[35S]GTPγS binding to Gαo … as agonist 0.1 μM” value turned out to be 58.6%; the “[35S]GTPγS binding … as agonist 1 μM + BFNA” value amounted to 52.2%; the “[35S]GTPγS binding to Gαo, FLNA-binding compound as agonist 1 μM” value was determined as 138.7%.
As for `CC1CCC(C(C)C)C(OCC(O)CN2CCN(CCCN3CCOCC3)CC2)C1` (stereo not drawn) [Compound A0026], the “[35S]GTPγS binding to Gαo … as agonist 0.1 μM” value stood at 140.7%; the “[35S]GTPγS binding … as agonist 1 μM + BFNA” value was found to be 120.8%; the “[35S]GTPγS binding to Gαo, FLNA-binding compound as agonist 1 μM” value is given as 179.8%.
For `Cc1ccc(C(C)C)c(OCC(O)CN2CC(C)OC(C)C2)c1` (stereo not drawn) [Compound A0028], the “[35S]GTPγS binding to Gαo … as agonist 0.1 μM” value is given as 143.6%; the “[35S]GTPγS binding … as agonist 1 μM + BFNA” value is on record as 116.7%; the “[35S]GTPγS binding to Gαo, FLNA-binding compound as agonist 1 μM” value was found to be 187.7%.
On to `Cc1cccc(OCC(O)CN2CC(C)OC(C)C2)c1` (stereo not drawn) [Compound A0030], for which the “[35S]GTPγS binding to Gαo … as agonist 0.1 μM” value worked out at 133.4%; the “[35S]GTPγS binding … as agonist 1 μM + BFNA” value stood at 165.2%; the “[35S]GTPγS binding to Gαo, FLNA-binding compound as agonist 1 μM” value was found to be 287.8%.
For `CC1CCC(C(C)C)C(OCC(O)CN2CCN(CCN3CCCCC3)CC2)C1` (stereo not drawn) [Compound A0031], in that order: 178.2%, 150.9% and 297.0%.
Consider `CC1CCC(C(C)C)C(OCC(O)CN2CC(C)OC(C)C2)C1` (stereo not drawn) [Compound A0032-1], for which the “[35S]GTPγS binding to Gαo … as agonist 0.1 μM” value came out at 187.4%; the “[35S]GTPγS binding … as agonist 1 μM + BFNA” value is given as 224.5%; the “[35S]GTPγS binding to Gαo, FLNA-binding compound as agonist 1 μM” value came to 324.5%. The “% DAMGO + BFNA” value (relative to DAMGO + BFNA) was determined as 303.8%. In addition, where the note is “relative to DAMGO, 0.1 μM”, the “% DAMGO (0.1 μM)” value turned out to be 95.5%. Further, for the setting “relative to DAMGO, 1 μM”, the “% DAMGO (1 μM)” value is 117.6%.
Regarding `CCN(CC)CC(O)COC1CC(C)CCC1C(C)C` (stereo not drawn) [Compound A0032], the “[35S]GTPγS binding to Gαo … as agonist 0.1 μM” value was 226.9%; the “[35S]GTPγS binding … as agonist 1 μM + BFNA” value is listed as 133.0%; the “[35S]GTPγS binding to Gαo, FLNA-binding compound as agonist 1 μM” value is on record as 257.8%.
Consider `CC1CCC(C(C)C)C(OCC(CN2CC(C)OC(C)C2)NCc2ccccc2)C1` (stereo not drawn) [Compound A0033], for which the “[35S]GTPγS binding to Gαo … as agonist 0.1 μM” value is 155.8%; the “[35S]GTPγS binding … as agonist 1 μM + BFNA” value is reported as 118.2%; the “[35S]GTPγS binding to Gαo, FLNA-binding compound as agonist 1 μM” value was 254.6%.
